Measured values reported in ChEMBL document CHEMBL5620422, “Design, synthesis, and biological evaluation of a series of new anthraquinone derivatives as anti-ZIKV agents” (Eur J Med Chem, 2023).
Active and inactive are the calls of the source. No cut-off for these calls is given here.

What was measured:
Zika virus = assay: Antiviral activity against ZIKV ZG-01 infected in A549 cells preincubated for 1 hr followed by replacement with fresh media containing compound for 48 hrs by crystal violet staining based plaque assay; format: functional, organism-based; conditions: ZG-01, A549
[1] = Cytotoxicity against human A549 cells assessed as reduction in cell viability incubated for 48 hrs by MTT assay; format: toxicity, cell-based
NS5 (Zika virus) = NS5 (Zika virus) (UniProt A0A143MHK7); assay: Binding affinity to ZIKV RdRP by SPR assay
[2] = test system: Porcine reproductive and respiratory syndrome virus; assay: Antiviral activity against Porcine reproductive and respiratory syndrome virus infected in MARC145 cells assessed as reduction in viral replication by microscopic analysis; format: functional, organism-based

| Structure (SMILES) | EC50 (Zika virus) [µM] | CC50 at 48 h [1] [µM] | Activity (NS5 (Zika virus)) | EC50 [2] [µM] |
| --- | --- | --- | --- | --- |
| C[C@]1(O)CC2=C(C[C@@]1(C)O)C(=O)c1c(O)cc(NC3CCC3)c(O)c1C2=O | 38.4 | > 50 |  |  |
| C[C@]1(O)CC2=C(C[C@@]1(C)O)C(=O)c1c(O)cc(NCC3CCCO3)c(O)c1C2=O (some centres undefined) | 36.1 | > 50 |  |  |
| C[C@]1(O)CC2=C(C[C@@]1(C)O)C(=O)c1c(O)cc(N3CCOCC3)c(O)c1C2=O | 15.4 | > 50 |  |  |
| C[C@]1(O)CC2=C(C[C@@]1(C)O)C(=O)c1c(O)cc(NCc3ccco3)c(O)c1C2=O | 16.5 | > 50 |  |  |
| C[C@]1(O)CC2=C(C[C@@]1(C)O)C(=O)c1c(O)cc(NCCc3ccccc3)c(O)c1C2=O | 4.2 | > 50 |  |  |
| C[C@]1(O)CC2=C(C[C@@]1(C)O)C(=O)c1c(O)cc(NC3CCCC3)c(O)c1C2=O | 17.1 | > 50 |  |  |
| C[C@]1(O)CC2=C(C[C@@]1(C)O)C(=O)c1c(O)cc(NC3CC3)c(O)c1C2=O | 48.1 | > 50 |  |  |
| CCCNc1cc(O)c2c(c1O)C(=O)C1=C(C[C@@](C)(O)[C@@](C)(O)C1)C2=O | 42.6 | > 50 |  |  |
| C[C@]1(O)CC2=C(C[C@@]1(C)O)C(=O)c1c(O)cc(NC3CCCCC3)c(O)c1C2=O | 15.5 | > 50 |  |  |
| NC(=O)c1ncn([C@@H]2O[C@H](CO)[C@@H](O)[C@H]2O)n1 |  |  | inactive |  |
| C[C@]1(O)CC2=C(C[C@@]1(C)O)C(=O)c1c(O)cc(NCCN3CCOCC3)c(O)c1C2=O | 24.5 | > 50 |  |  |
| CCC(C)Nc1cc(O)c2c(c1O)C(=O)C1=C(C[C@@](C)(O)[C@@](C)(O)C1)C2=O (some centres undefined) | > 50 | > 50 |  |  |
| C[C@]1(O)CC2=C(C[C@@]1(C)O)C(=O)c1c(O)cc(NCCc3cccs3)c(O)c1C2=O | 7.8 | > 50 |  |  |
| COc1cc(O)c2c(c1)[C@@H](O)[C@H]1C[C@](C)(O)[C@H](O)C[C@@H]1C2=O [TETRAHYDROALTERSOLANOL C] |  |  |  | 12.1 |
| C[C@]1(O)CC2=C(C[C@@]1(C)O)C(=O)c1c(O)cc(NCCC3=CCCCC3)c(O)c1C2=O | 5.7 | > 50 |  |  |
| C[C@]1(O)CC2=C(C[C@@]1(C)O)C(=O)c1c(O)cc(NCCc3ccco3)c(O)c1C2=O | 8.1 | > 50 |  |  |
| C[C@]1(O)CC2=C(C[C@@]1(C)O)C(=O)c1c(O)cc(NCCN3CCCC3)c(O)c1C2=O | 8.4 | > 50 |  |  |
| C[C@]1(O)CC2=C(C[C@@]1(C)O)C(=O)c1c(O)cc(NCc3ccccc3)c(O)c1C2=O | 10.3 | > 50 |  |  |
| C[C@]1(O)CC2=C(C[C@@]1(C)O)C(=O)c1c(O)cc(NCCN3CCCCC3)c(O)c1C2=O | 8.7 | > 50 |  |  |
| C[C@]1(O)CC2=C(C[C@@]1(C)O)C(=O)c1c(O)cc(NCc3cccs3)c(O)c1C2=O | 12.2 | > 50 |  |  |
| C[C@]1(O)CC2=C(C[C@@]1(C)O)C(=O)c1c(O)cc(NCCO)c(O)c1C2=O | 48.4 | > 50 |  |  |
| C[C@]1(O)CC2=C(C[C@@]1(C)O)C(=O)c1c(O)cc(N3CCCC3)c(O)c1C2=O | 25.6 | > 50 |  |  |
| CCNc1cc(O)c2c(c1O)C(=O)C1=C(C[C@@](C)(O)[C@@](C)(O)C1)C2=O | 44.2 | > 50 |  |  |
